{
  "source": "patent US10322123B2",
  "about": "“Compound for anti-cancer therapy that acts by targeting GOF mutant P53 and stimulates P73 to restore the P53 pathway signaling” (The Penn State Research Foundation, priority 2014, dated 2019)",
  "molecular_target": "mutant p53 (Homo sapiens, UniProt P04637, P309S/R273H)",
  "assay_type": "cell-based",
  "parameters": "Mutant p53 protein levels in mutant p53-expressing cancer cells treated with NSC59984; endogenous in cells; host or cells: SW480, DLD-1, Hop92, RXF393; effect on NSC59984-mediated down-regulation of mutant p53: dose or concentration left out as unconfirmed",
  "settings": "SW480 cells, MG132 with NSC59984, 16 hr",
  "description": "The primary antibodies indicated in the figures were incubated with the transferred PVDF in blocking buffer at 4° C. overnight. Antibody binding was detected on PVDF with appropriate IRDye-secondary antibodies (LI-COR Biosciences, USA) by the ODYSSEY infrared imaging system.",
  "note": "Residues, ends and D or L forms follow the SMILES beside them. *: point of attachment. Cbz = O=C(OCc1ccccc1)*",
  "data": [
    {"compound": "CC(C)C[C@@H](C=O)NC(=O)[C@H](CC(C)C)NC(=O)[C@H](CC(C)C)NC(=O)OCc1ccccc1", "note": "[MG132, reference compound] (Cbz-Leu-Leu-Leu-aldehyde)", "values": [
      {"measurement": "effect on NSC59984-mediated down-regulation of mutant p53", "value": "rescued"}
    ]}
  ]
}
